US20110015080A1, “Solution-based methods for RNA expression profiling” (MASSACHUSETTS INSTITUTE OF TECHNOLOGY, priority 2005, published 2011)
Values joined by “and” are separate entries in the source; they are usually repeats but may differ in a detail not shown here. Equal values may be shown once.

Test system: HL60 (human promyelocytic leukemia) cells
Assay: LMA-FlexMAP bead-based gene expression signature analysis of total RNA from HL60 cells treated with tretinoin or DMSO (ninety transcripts); on NM 000884 LUA#81 FlexMAP signal: test concentration or dose not given here; on NM 001469 LUA#79 FlexMAP signal: test concentration or dose not given here

Question: For `CC1=C(/C=C/C(C)=C/C=C/C(C)=C/C(=O)O)C(C)(C)CCC1` [tretinoin, all-trans-retinoic acid], which “ACTB LUA#91 FlexMAP signal” value (Experiment 1, tretinoin-treated HL60, transcript ACTB, replicate columns) is on record?
Answer: Its value is 2313 and 2609 and 1929 and 2483 and 818 and 2425.5 and 2563 and 1173 and 2347 and 2296.5.

Question: What about the “GAPDH_3 LUA#95 FlexMAP signal” value (Experiment 1, tretinoin-treated HL60, transcript GAPDH_3, replicate columns) of the same compound?
Answer: Its value is 2580 and 2982 and 2428 and 2979 and 1102.5 and 2911 and 2912 and 1645 and 2823 and 2559.

Question: What about the “GAPDH_5 LUA#93 FlexMAP signal” value (Experiment 1, tretinoin-treated HL60, transcript GAPDH_5, replicate columns) of the same compound?
Answer: The value was 1299 and 1629 and 998.5 and 1419 and 378.5 and 1433 and 1505.5 and 632 and 1469 and 1347.

Question: What about the “GAPDH_M LUA#94 FlexMAP signal” value (Experiment 1, tretinoin-treated HL60, transcript GAPDH_M, replicate columns) of the same compound?
Answer: The value was 1360.5 and 1575 and 1134 and 1511.5 and 460 and 1520 and 1502 and 698.5 and 1462 and 1334.

Question: And the “NM_000147 LUA#29 FlexMAP signal” value (Experiment 1, tretinoin-treated HL60, transcript NM_000147, replicate columns)?
Answer: The value was 764 and 894 and 573 and 861 and 195.5 and 822.5 and 850 and 302 and 783 and 763.

Question: What about the “NM_000211 LUA#39 FlexMAP signal” value (Experiment 1, tretinoin-treated HL60, transcript NM_000211, replicate columns) of the same compound?
Answer: Its value is 1294.5 and 1488 and 1125 and 1420 and 454.5 and 1349 and 1366.5 and 682 and 1361 and 1315.

Question: What about the “NM_000250 LUA#87 FlexMAP signal” value (Experiment 1, tretinoin-treated HL60, transcript NM_000250, replicate columns) of the same compound?
Answer: The value was 164 and 198 and 194 and 74 and 177 and 187 and 95.5 and 173 and 166.

Question: And the “NM_000414 LUA#22 FlexMAP signal” value (Experiment 1, tretinoin-treated HL60, transcript NM_000414, replicate columns)?
Answer: The value was 372.5 and 470.5 and 270 and 442 and 100 and 408.5 and 415 and 145 and 402.5 and 373.

Question: And the “NM_000433 LUA#28 FlexMAP signal” value (Experiment 1, tretinoin-treated HL60, transcript NM_000433, replicate columns)?
Answer: Its value is 536.5 and 647 and 442.5 and 640 and 144 and 605 and 622 and 228.5 and 564 and 532.

Question: And the “NM_000584 LUA#30 FlexMAP signal” value (Experiment 1, tretinoin-treated HL60, transcript NM_000584, replicate columns)?
Answer: The value was 1765 and 2115 and 1464 and 1938.5 and 476 and 1981.5 and 1945 and 799.5 and 1938 and 1717.

Question: And the “NM_000884 LUA#81 FlexMAP signal” value (Experiment 1, tretinoin-treated HL60, transcript NM_000884, replicate columns)?
Answer: The value was 799 (2×) and 946 and 676 and 871.5 and 250 and 871 and 865 and 389 and 830.5.

Question: What about the “NM_001034 LUA#67 FlexMAP signal” value (Experiment 1, tretinoin-treated HL60, transcript NM_001034, replicate columns) of the same compound?
Answer: Its value is 191 and 243 and 157 and 225 and 73 and 209 and 212.5 and 92 and 219 and 185.

Question: What about the “NM_001101 LUA#34 FlexMAP signal” value (Experiment 1, tretinoin-treated HL60, transcript NM_001101, replicate columns) of the same compound?
Answer: The value was 2722 and 3119.5 and 2773 and 2969.5 and 1490 and 2968.5 and 2890 and 1977 and 2893.5 and 2694.

Question: And the “NM_001469 LUA#79 FlexMAP signal” value (Experiment 1, tretinoin-treated HL60, transcript NM_001469, replicate columns)?
Answer: The value was 1076 and 1221 and 809 and 1179 (2×) and 284 and 1191 and 463 and 1140.5 and 1077.

Question: And the “NM_001498 LUA#18 FlexMAP signal” value (Experiment 1, tretinoin-treated HL60, transcript NM_001498, replicate columns)?
Answer: Its value is 361 and 424 and 279 and 402 and 96 and 374 and 412 and 140 and 360 and 335.5.

Question: What about the “NM_001684 LUA#23 FlexMAP signal” value (Experiment 1, tretinoin-treated HL60, transcript NM_001684, replicate columns) of the same compound?
Answer: Its value is 69 and 68 and 54 and 66.5 and 41 and 65 (2×) and 43 and 61 and 63.

Question: And the “NM_001948 LUA#84 FlexMAP signal” value (Experiment 1, tretinoin-treated HL60, transcript NM_001948, replicate columns)?
Answer: The value was 58 and 75 and 61 and 73 and 47 and 63 and 71 and 51 and 76 and 66.

Question: And the “NM_002166 LUA#25 FlexMAP signal” value (Experiment 1, tretinoin-treated HL60, transcript NM_002166, replicate columns)?
Answer: The value was 154 and 180 and 124.5 and 159.5 and 61 and 168 and 159 and 79.5 and 156.5 and 152.

Question: What about the “NM_002467 LUA#90 FlexMAP signal” value (Experiment 1, tretinoin-treated HL60, transcript NM_002467, replicate columns) of the same compound?
Answer: Its value is 1030 and 801 and 702 and 736 and 256 and 792.5 and 842.5 and 399 and 957 and 976.

Question: And the “NM_002468 LUA#40 FlexMAP signal” value (Experiment 1, tretinoin-treated HL60, transcript NM_002468, replicate columns)?
Answer: The value was 418 and 492 and 325 and 448.5 and 121 and 496.5 and 473 and 174.5 and 426.5 and 399.5.

Question: And the “NM_002539 LUA#74 FlexMAP signal” value (Experiment 1, tretinoin-treated HL60, transcript NM_002539, replicate columns)?
Answer: Its value is 276 and 362 and 231 and 326 and 85 and 313 and 314.5 and 131 and 300 and 281.5.

Question: What about the “NM_002624 LUA#36 FlexMAP signal” value (Experiment 1, tretinoin-treated HL60, transcript NM_002624, replicate columns) of the same compound?
Answer: Its value is 1288 and 1492.5 and 1267 and 1418 and 576 and 1447 and 1402 and 820 and 1224.5.

Question: What about the “NM_002664 LUA#38 FlexMAP signal” value (Experiment 1, tretinoin-treated HL60, transcript NM_002664, replicate columns) of the same compound?
Answer: Its value is 2325 and 2761 and 2157 and 2552 and 892 and 2527 and 2504 and 1337 and 2394 and 2330.

Question: And the “NM_002970 LUA#42 FlexMAP signal” value (Experiment 1, tretinoin-treated HL60, transcript NM_002970, replicate columns)?
Answer: Its value is 1455 and 1683.5 and 1181 and 1595 and 400 and 1478 and 1584 and 651 and 1503 and 1459.

Question: And the “NM_002982 LUA#45 FlexMAP signal” value (Experiment 1, tretinoin-treated HL60, transcript NM_002982, replicate columns)?
Answer: Its value is 3488 and 3786 and 3231 and 3797 and 1738 and 3852 and 3752 and 2466 and 3667 and 3451.

Question: And the “NM_003132 LUA#68 FlexMAP signal” value (Experiment 1, tretinoin-treated HL60, transcript NM_003132, replicate columns)?
Answer: The value was 488 (2×) and 596 and 410 and 540 and 148 and 523 and 517 and 212 and 467.5.

Question: And the “NM_003172 LUA#19 FlexMAP signal” value (Experiment 1, tretinoin-treated HL60, transcript NM_003172, replicate columns)?
Answer: The value was 243 and 276 and 208 and 286 and 86 and 264 and 257 and 121 and 260 and 235.

Question: What about the “NM_003332 LUA#43 FlexMAP signal” value (Experiment 1, tretinoin-treated HL60, transcript NM_003332, replicate columns) of the same compound?
Answer: The value was 2387.5 and 2641 and 2219 and 2571.5 and 1100 and 2688.5 and 2573.5 and 1470 and 2528 and 2325.

Question: And the “NM_003581 LUA#62 FlexMAP signal” value (Experiment 1, tretinoin-treated HL60, transcript NM_003581, replicate columns)?
Answer: Its value is 53 and 57 and 147 and 80 and 50 (2×) and 65 and 52 and 43 and 42.

Question: And the “NM_003644 LUA#17 FlexMAP signal” value (Experiment 1, tretinoin-treated HL60, transcript NM_003644, replicate columns)?
Answer: The value was 282 and 272 and 195.5 and 252 and 105 and 266.5 and 259 and 142 and 271.5 and 260.

Question: What about the “NM_003752 LUA#82 FlexMAP signal” value (Experiment 1, tretinoin-treated HL60, transcript NM_003752, replicate columns) of the same compound?
Answer: The value was 130.5 and 145.5 and 114 and 144.5 and 71 and 128.5 and 142 and 94 and 137.5 and 124.5.

Question: What about the “NM_003879 LUA#24 FlexMAP signal” value (Experiment 1, tretinoin-treated HL60, transcript NM_003879, replicate columns) of the same compound?
Answer: The value was 72.5 and 77.5 and 57 and 80 (2×) and 41 and 71 and 76 and 53 and 67.

Question: What about the “NM_004079 LUA#21 FlexMAP signal” value (Experiment 1, tretinoin-treated HL60, transcript NM_004079, replicate columns) of the same compound?
Answer: Its value is 113 and 129 and 93 and 124.5 and 55 and 127 and 122 and 70 and 125.5 and 99.5.

Question: And the “NM_004095 LUA#59 FlexMAP signal” value (Experiment 1, tretinoin-treated HL60, transcript NM_004095, replicate columns)?
Answer: The value was 203 and 247 and 148 and 227 and 78 and 212 (2×) and 101 and 214.5 and 194.5.

Question: What about the “NM_004106 LUA#44 FlexMAP signal” value (Experiment 1, tretinoin-treated HL60, transcript NM_004106, replicate columns) of the same compound?
Answer: Its value is 1187 and 1452 and 994 and 1303 and 373 and 1308 and 1315 and 576.5 and 1274.5 and 1218.

Question: And the “NM_004134 LUA#76 FlexMAP signal” value (Experiment 1, tretinoin-treated HL60, transcript NM_004134, replicate columns)?
Answer: Its value is 278 and 318 and 207 and 277 and 83.5 and 292 and 306 and 111 and 280 and 266.5.

Question: And the “NM_004152 LUA#31 FlexMAP signal” value (Experiment 1, tretinoin-treated HL60, transcript NM_004152, replicate columns)?
Answer: Its value is 1944 and 2194 and 1662 and 2073 and 775 and 2127.5 and 2117 and 1110 and 2045 and 1823.

Question: And the “NM_004526 LUA#88 FlexMAP signal” value (Experiment 1, tretinoin-treated HL60, transcript NM_004526, replicate columns)?
Answer: The value was 192 and 223 and 150 and 213 and 77 and 208 and 192.5 and 101 and 206.5 and 182.5.

Question: And the “NM_004602 LUA#32 FlexMAP signal” value (Experiment 1, tretinoin-treated HL60, transcript NM_004602, replicate columns)?
Answer: Its value is 215.5 and 258 and 182 and 239 and 88 and 232.5 and 227.5 and 113.5 and 224 and 212.

Question: And the “NM_004723 LUA#20 FlexMAP signal” value (Experiment 1, tretinoin-treated HL60, transcript NM_004723, replicate columns)?
Answer: Its value is 380 and 446 and 318 and 394 and 127 and 418.5 and 388.5 and 184 and 400 and 363.5.

Question: And the “NM_004741 LUA#89 FlexMAP signal” value (Experiment 1, tretinoin-treated HL60, transcript NM_004741, replicate columns)?
Answer: The value was 205 and 208 and 168 and 215 and 100 and 204 and 198 and 116 and 214 and 204.5.

Question: And the “NM_004759 LUA#37 FlexMAP signal” value (Experiment 1, tretinoin-treated HL60, transcript NM_004759, replicate columns)?
Answer: Its value is 116 and 149.5 and 148 and 139.5 and 53 and 128 and 141 and 67 and 134 and 103.

Question: What about the “NM_005008 LUA#77 FlexMAP signal” value (Experiment 1, tretinoin-treated HL60, transcript NM_005008, replicate columns) of the same compound?
Answer: Its value is 343 and 416 and 307 and 392 and 123 and 401 and 382.5 and 167 and 372 and 338.5.

Question: What about the “NM_005375 LUA#86 FlexMAP signal” value (Experiment 1, tretinoin-treated HL60, transcript NM_005375, replicate columns) of the same compound?
Answer: The value was 780.5 and 638 and 523 and 594.5 and 238 and 631.5 and 617 and 351 and 734 and 717.

Question: And the “NM_005566 LUA#85 FlexMAP signal” value (Experiment 1, tretinoin-treated HL60, transcript NM_005566, replicate columns)?
Answer: The value was 540 and 632.5 and 583.5 and 642 and 150 and 607 and 596 and 219 and 577 and 523.5.

Question: What about the “NM_005914 LUA#60 FlexMAP signal” value (Experiment 1, tretinoin-treated HL60, transcript NM_005914, replicate columns) of the same compound?
Answer: Its value is 881.5 and 948 and 566.5 and 843 and 209 and 866 and 848.5 and 351 and 885 and 795.

Question: What about the “NM_005915 LUA#72 FlexMAP signal” value (Experiment 1, tretinoin-treated HL60, transcript NM_005915, replicate columns) of the same compound?
Answer: The value was 44 (2×) and 59 and 39 and 54 and 34.5 and 56 and 41 and 51 and 47.
